The values below come from patent publication US20220016205A1, “METHODS OF OVERCOMING RESISTANCE TO IMMUNE CHECKPOINT INHIBITORS” (Board of Regents, The University of Texas System, priority 2018, published 2022).

In test [1] the test system is RAW 264.7 cells. The test can be described thus: qPCR in RAW 264.7 cells co-cultured with 344SQR cells (transwell) with follistatin or K02288. It is filed as cell-based, murine. The conditions noted are these: 344SQR co-culture plus K02288 compared with 344SQR only (FIG. 3E). An excerpt: (§1) Quantitative polymerase chain reaction (qPCR). Total RNA was isolated from cells and tumors with Triazol (Life Technologies) according to the manufacturer's protocol. For studies of BMP7, p38α, IL-1α, IL-1β, TNF-α, RANTES, IL-2, and IFN-γ expression, mRNA was retrotranscribed with the iScript™ gDNA Clear cDNA Synthesis Kit (BioRad) and analyzed by qPCR using SYBR Green (Life Technologies) with specific primers according to the manufacturer's protocol. The comparative Ct method was used to calculate the relative abundance of mRNAs compared with ACTB (beta-actin) expression for cancer cells or CD45 expression for immune cells.
Co-culture experiments and treatments. Viable cells were counted with a hemocytometer (0.4% Trypan blue solution) and diluted to 40,000 cells per well in 24-wells plates. Cells from 344SQP, 344SQR, 344SQ ctrl, or 344SQ-shBMP7 tumors were seeded at the top inserts (24-mm Transwell with 0.4-μm pore polycarbonate membrane insert, Sigma-Aldrich), and RAW 264.7 or CD4^+ T cells were seeded at the bottom of the transwell system. […] RNA was then isolated from RAW 264.7 or CD4^+ T cells and analyzed for p38α, IL-1α, IL-1β, TNF-α, RANTES, IL-2 and IFN-γ expression with qPCR. […]
On the technique in general: In qPCR the cycle at which signal appears reflects the starting amount.

Test [2] concerns peritoneal macrophages. Kind of test: qPCR in peritoneal macrophages co-cultured with 344SQR cells (transwell) with follistatin or K02288. The test is classed as cell-based, mouse. The following applies: 344SQR co-culture plus K02288 compared with 344SQR only (FIG. 3F).
The test system of test [3] is 344SQR shBMP7 tumors. The test can be described thus: Tumor growth, survival and TIL flow cytometry of mice with 344SQR shBMP7 (BMP7-knockdown) tumors treated with checkpoint antibodies. It is filed as in vivo, 129Sv/Ev mice. The following applies: antibody 10 mg/kg twice a week for 2 weeks in combination with BMP7 knockdown, compared with control (FIGS. 5A, 5I, 5J). On the procedure:
In vivo studies. All mouse studies were approved by the Institutional Animal Care and Use Committee (IACUC) of The University of Texas MD Anderson Cancer Center before their initiation; animal care was provided according to IACUC standards, and all mice had been bred and were maintained in our own specific pathogen-free mouse colony. For RRBS, RPPA and TILs studies, primary tumors were established by subcutaneous injection of 344SQP or 344SQR cells (0.5×10^6 in 100 μL of sterile phosphate buffered saline [PBS]) into the leg of syngeneic 129Sv/Ev mice (female, 12-16 weeks old). Mice were then given intraperitoneal injections of anti-PD1 or control IgG antibodies (10 mg/kg) (Bio X cell), starting on day 4 after tumor cell inoculation and continuing twice per week for a total of 4 doses. At 24 hours after the last anti-PD1 treatment, tumor tissues were collected for DNA (2 mice/group) and protein isolation (2 or 3 mice/group). For TILs isolation, tumor tissues (3 mice/group) were collected a week after the last treatment with anti-PD1. […] Tumors were measured with calipers three times per week and recorded as tumor volume (in mm^3)=width^2×length/2. […] Mouse survival rates were analyzed by using the Kaplan-Meier method and compared with log-rank tests.
Tissue processing and flow cytometry. […] All samples were analyzed with an LSRII flow cytometer and FlowJo software (version 10.0.7). […]
A general note: Flow cytometry measures light scatter and fluorescence of single cells or particles in a stream.

Test [4] has as its system T lymphocytes. The conditions noted are these: Matsuda et al., 1998; cited from earlier work.
Test [5] deals with T-cell. The following applies: Crawley et al., 1997; cited from earlier work.
For test [6], the system named is RAW 264.7 cells. Kind of test: qPCR of p38α, IL-1α, IL-1β, TNF-α, RANTES in RAW 264.7 cells treated with BMP7 or BMP7 plus follistatin. The test is classed as cell-based, murine. The conditions noted are these: BMP7 compared to untreated control, 24 or 48 hours (FIG. 3G).
Description: as §1
(§2) Co-culture experiments and treatments. Viable cells were counted with a hemocytometer (0.4% Trypan blue solution) and diluted to 40,000 cells per well in 24-wells plates. Cells from 344SQP, 344SQR, 344SQ ctrl, or 344SQ-shBMP7 tumors were seeded at the top inserts (24-mm Transwell with 0.4-μm pore polycarbonate membrane insert, Sigma-Aldrich), and RAW 264.7 or CD4^+ T cells were seeded at the bottom of the transwell system. […] RNA was then isolated from RAW 264.7 or CD4^+ T cells and analyzed for p38α, IL-1α, IL-1β, TNF-α, RANTES, IL-2 and IFN-γ expression with qPCR.

Test [7] deals with peritoneal macrophages. The test can be described thus: qPCR of p38α, IL-1α, IL-1β, TNF-α, RANTES in peritoneal macrophages treated with BMP7 or BMP7 plus follistatin. It is filed as cell-based, mouse. The following applies: BMP7 compared to untreated control (FIG. 3G).
Description: as §1, §2

Test [8] relates to CD4^+ T cells. The test can be described thus: qPCR of p38α, IFN-γ, IL-2 in activated CD4+ T cells treated with BMP7 or BMP7 plus follistatin. It is filed as cell-based, mouse.
Description: as §1
Co-culture experiments and treatments. Viable cells were counted with a hemocytometer (0.4% Trypan blue solution) and diluted to 40,000 cells per well in 24-wells plates. Cells from 344SQP, 344SQR, 344SQ ctrl, or 344SQ-shBMP7 tumors were seeded at the top inserts (24-mm Transwell with 0.4-μm pore polycarbonate membrane insert, Sigma-Aldrich), and RAW 264.7 or CD4^+ T cells were seeded at the bottom of the transwell system. CD4^+ T cells were isolated from splenocytes by using Dynabeads Untouched Mouse CD4 Cells Kit (Thermo Fisher Scientific—Life Technologies, Catalog #11416D) and activated with LEAF purified anti-mouse CD3c antibody (5 μg/mL) and LEAF purified anti-mouse CD28 antibody (1 μg/mL) (Biolegend). […] RNA was then isolated from RAW 264.7 or CD4^+ T cells and analyzed for p38α, IL-1α, IL-1β, TNF-α, RANTES, IL-2 and IFN-γ expression with qPCR.
Next, CD4^+ T cells were co-cultured with 344SQP or 344SQR cells, and 344SQR ctrl or 344SQR shBMP7 cells, and the expression of p38α, IFN-γ, and IL-2 analyzed. […] To confirm that these findings depended on BMP7 and not on some other secreted molecule, CD4^+ T cells were treated with BMP7 with or without follistatin and p38α, IFN-γ, and IL-2 expression evaluated. […]

Test [9] has as its system RAW 264.7 cells. Kind of test: p38a silencing with siRNAs in RAW 264.7 cells, qPCR / expression analysis. It is filed as cell-based, murine. The conditions noted are these: BMP7 treatment of cells treated with siRNAs targeting p38a (FIG. 3K).
Description: as §1
Transfection siRNA. siRNA targeting p38a (Life Technologies, Cat #4390771) and its respective negative-control negative control (Life Technologies, Cat #4390843) were reverse-transfected into RAW 264.7 macrophages with Lipofectamine 2000 (Life Technologies) to a final concentration of […].

`COc1cc(-c2cc(-c3cccc(O)c3)cnc2N)cc(OC)c1OC` [K02288, reference compound]: the “expression of p38a and p38α-regulated cytokines and chemokines” value in [1] and in test [2] was “lower expression” in each case.

With “anti-PDL1: anti-PDL1 (Durvalumab, Pharmacy MD Anderson)”, in test [3], the survival result is reported as “increased survival”.

Regarding `C[S+]([O-])c1ccc(-c2nc(-c3ccncc3)c(-c3ccc(F)cc3)[nH]2)cc1` (stereo not shown) [SB203580], the “transcriptional activation of the IL-2 promoter” value in test [4] was “suppressed the transcriptional activation”. For the same molecule, the “T-cell proliferation in response to IL-2” value in [5] was “suppressed T-cell proliferation”.

B1: BMP7: bone morphogenetic protein (BMP)-7, secreted protein of the TGF-β superfamily (R&D Systems, Catalog #5666-BP-010) (protein, UniProt P18075 293-431, looked up)
Bone morphogenetic protein 7: STGSKQRSQNRSKTPKNQEALRMANVAENSSSDQRQACKKHELYVSFRDLGWQDWIIAPEGYAAYYCEGECAFPLNSYMNATNHAIVQTLVHFINPETVPKPCCAPTQLNAISVLYFDDSSNVILKKYRNMVVRACGCH
Regarding B1, the “expression of p38a and p38α-regulated cytokines and chemokines” value in test [6] and in [7] was “lower expression” in each case. In [8] (effect of BMP7), the p38α expression result is “led to changes”. Moreover, the “IFN-γ and IL-2 expression” value in [8] (effect of BMP7, via p38α) was “decreased”. The “expression of TNF-α, IL1-β, and CD206” value in test [9] is listed as “did not alter”.
